The source of these data is patent US10660877B2 (BRISTOL-MYERS SQUIBB COMPANY, priority 2016, dated 2020).

For experiment [1], the target named is human TLR9 (Homo sapiens (Human), UniProt Q9NR96). In words: TLR9 inhibition reporter assay (HEK-Blue cells, SEAP reporter, ODN2006 stimulation).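 Note: compounds tested over 0.05 nM to 50 µM, 22 h incubation, inhibition taken as SEAP signal drop from agonist plus DMSO wells toward a known inhibitor control.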 Background: Reporter assays use an easily measured gene product as a stand-in for the process of interest.
Chain of human TLR9 (Q9NR96 26-1032): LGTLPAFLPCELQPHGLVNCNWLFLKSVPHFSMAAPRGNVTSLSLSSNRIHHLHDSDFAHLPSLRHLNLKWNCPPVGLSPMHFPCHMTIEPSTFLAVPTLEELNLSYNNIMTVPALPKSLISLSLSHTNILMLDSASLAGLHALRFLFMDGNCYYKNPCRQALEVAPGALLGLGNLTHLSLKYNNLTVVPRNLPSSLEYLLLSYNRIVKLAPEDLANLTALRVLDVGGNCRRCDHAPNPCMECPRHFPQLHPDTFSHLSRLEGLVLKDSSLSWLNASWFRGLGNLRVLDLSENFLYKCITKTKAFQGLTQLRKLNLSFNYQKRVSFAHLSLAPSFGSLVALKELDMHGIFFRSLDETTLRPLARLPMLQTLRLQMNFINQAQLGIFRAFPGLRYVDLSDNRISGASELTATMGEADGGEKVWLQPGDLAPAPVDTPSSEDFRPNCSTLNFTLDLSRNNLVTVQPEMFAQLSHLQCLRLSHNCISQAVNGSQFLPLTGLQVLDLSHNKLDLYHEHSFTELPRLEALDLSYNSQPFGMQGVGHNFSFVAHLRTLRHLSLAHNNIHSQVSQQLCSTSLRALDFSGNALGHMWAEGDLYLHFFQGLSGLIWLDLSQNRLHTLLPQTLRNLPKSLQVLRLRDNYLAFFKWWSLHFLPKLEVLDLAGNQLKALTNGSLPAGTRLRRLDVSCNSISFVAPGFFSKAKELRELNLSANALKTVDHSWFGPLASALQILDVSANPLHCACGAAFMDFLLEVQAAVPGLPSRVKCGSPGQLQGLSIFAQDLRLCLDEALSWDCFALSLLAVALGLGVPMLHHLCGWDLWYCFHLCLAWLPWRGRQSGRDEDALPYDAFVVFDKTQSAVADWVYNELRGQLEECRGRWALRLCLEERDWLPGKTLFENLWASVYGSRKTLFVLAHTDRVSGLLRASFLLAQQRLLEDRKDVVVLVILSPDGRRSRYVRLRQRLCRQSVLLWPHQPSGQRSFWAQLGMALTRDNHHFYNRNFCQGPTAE
For experiment [2], the target named is human TLR7 (Homo sapiens (Human), UniProt Q9NYK1). In words: TLR7 inhibition reporter assay (HEK-Blue cells, SEAP reporter, gardiquimod stimulation). It is filed as cell-based.
Chain of human TLR7 (Q9NYK1 27-1049): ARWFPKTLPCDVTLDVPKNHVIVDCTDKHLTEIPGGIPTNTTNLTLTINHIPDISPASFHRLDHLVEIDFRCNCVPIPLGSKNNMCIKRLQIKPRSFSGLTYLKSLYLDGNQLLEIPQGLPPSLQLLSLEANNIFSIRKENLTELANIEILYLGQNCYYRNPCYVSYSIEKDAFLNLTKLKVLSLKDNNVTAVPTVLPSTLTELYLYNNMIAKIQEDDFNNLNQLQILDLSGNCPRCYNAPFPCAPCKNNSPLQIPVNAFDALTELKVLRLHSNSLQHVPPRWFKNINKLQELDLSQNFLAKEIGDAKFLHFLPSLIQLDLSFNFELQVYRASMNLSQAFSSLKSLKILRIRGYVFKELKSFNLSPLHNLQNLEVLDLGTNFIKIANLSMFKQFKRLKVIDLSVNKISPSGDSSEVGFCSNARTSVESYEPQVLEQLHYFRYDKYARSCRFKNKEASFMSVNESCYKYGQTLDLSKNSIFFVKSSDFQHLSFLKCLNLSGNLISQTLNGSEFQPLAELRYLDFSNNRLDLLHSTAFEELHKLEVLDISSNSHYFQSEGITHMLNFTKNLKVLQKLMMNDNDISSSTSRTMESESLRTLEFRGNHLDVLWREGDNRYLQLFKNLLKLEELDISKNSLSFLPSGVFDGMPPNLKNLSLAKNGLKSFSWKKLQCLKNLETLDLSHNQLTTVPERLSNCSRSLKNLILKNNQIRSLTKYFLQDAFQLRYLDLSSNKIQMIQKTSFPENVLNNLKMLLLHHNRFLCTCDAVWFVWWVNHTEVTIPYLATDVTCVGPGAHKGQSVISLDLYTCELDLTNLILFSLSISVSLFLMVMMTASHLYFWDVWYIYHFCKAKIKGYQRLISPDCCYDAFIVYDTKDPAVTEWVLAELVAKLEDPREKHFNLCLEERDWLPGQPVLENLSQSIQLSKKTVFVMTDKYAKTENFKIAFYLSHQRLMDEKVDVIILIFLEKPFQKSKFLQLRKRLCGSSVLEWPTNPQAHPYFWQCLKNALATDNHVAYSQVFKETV
The target of experiment [3] is human TLR8 (Homo sapiens (Human), UniProt Q9NR97). Briefly: TLR8 inhibition reporter assay (HEK-Blue cells, SEAP reporter, R848 stimulation).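 Note: compounds tested from 0.05 nM to 50 µM, 22 h at 37 °C, SEAP measured with HEK-Blue Detection, inhibition relative to agonist plus DMSO versus a known inhibitor.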
Chain of human TLR8 (Q9NR97 27-1041): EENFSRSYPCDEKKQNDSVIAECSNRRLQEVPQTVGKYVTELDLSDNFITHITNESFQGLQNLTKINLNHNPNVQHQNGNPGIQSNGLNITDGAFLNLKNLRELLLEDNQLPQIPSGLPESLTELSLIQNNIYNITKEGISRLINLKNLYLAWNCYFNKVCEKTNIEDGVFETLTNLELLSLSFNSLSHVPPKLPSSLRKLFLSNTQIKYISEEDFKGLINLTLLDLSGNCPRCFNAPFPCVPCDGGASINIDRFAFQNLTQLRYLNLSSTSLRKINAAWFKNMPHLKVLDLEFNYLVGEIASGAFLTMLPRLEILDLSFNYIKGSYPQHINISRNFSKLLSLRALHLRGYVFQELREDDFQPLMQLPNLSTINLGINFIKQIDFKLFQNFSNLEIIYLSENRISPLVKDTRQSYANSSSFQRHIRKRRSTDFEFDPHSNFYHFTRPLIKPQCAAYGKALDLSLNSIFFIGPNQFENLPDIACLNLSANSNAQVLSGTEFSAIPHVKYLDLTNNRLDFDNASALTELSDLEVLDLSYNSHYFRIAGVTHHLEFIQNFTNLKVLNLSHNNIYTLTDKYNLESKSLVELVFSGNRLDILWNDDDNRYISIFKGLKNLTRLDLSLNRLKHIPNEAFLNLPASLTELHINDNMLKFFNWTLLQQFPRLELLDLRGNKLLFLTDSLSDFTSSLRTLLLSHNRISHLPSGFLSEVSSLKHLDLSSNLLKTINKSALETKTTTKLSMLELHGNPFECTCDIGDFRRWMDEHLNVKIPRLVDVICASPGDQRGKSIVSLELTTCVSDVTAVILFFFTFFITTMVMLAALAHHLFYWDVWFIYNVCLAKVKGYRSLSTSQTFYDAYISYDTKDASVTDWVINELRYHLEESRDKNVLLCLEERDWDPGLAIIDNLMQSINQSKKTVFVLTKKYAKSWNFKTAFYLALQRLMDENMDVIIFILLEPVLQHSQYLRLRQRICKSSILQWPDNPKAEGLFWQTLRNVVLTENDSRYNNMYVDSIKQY
Where [4] appears, read: read-out: TLR9 IC50, HEK-Blue cells overexpressing human TLR9, ODN2006 5 nM.
Where [5] appears, read: HEK-Blue cells overexpressing human TLR7, gardiquimod 7.5 μM.
[6] abbreviates: read-out: TLR8 IC50, HEK-Blue cells overexpressing human TLR8, R848 15.9 μM.
Where [7] appears, read: TLR9 IC50, HEK-Blue cells overexpressing human TLR9, ODN2006 5 nM.
Where [8] appears, read: TLR8 IC50, HEK-Blue cells overexpressing human TLR8, R848 15.9 μM.
The mark [9] stands for this setting: read-out: TLR9 IC50, HEK-Blue cells, ODN2006 5 nM.
The mark [10] stands for this setting: HEK-Blue cells, gardiquimod 7.5 μM.
Setting [11] is: read-out: TLR8 IC50, HEK-Blue cells, R848 15.9 μM.

Read-outs that look alike come from different tables or passages of the source.

As usually defined, the IC50 is the concentration at which inhibition is half-maximal. Take `Cc1cc(-c2[nH]c3ccc(C4CCN(C(=O)CN(C)CCCO)CC4)cc3c2C(C)C)cc(C)n1` [Example 411, 1-(4-(2-(2,6-dimethylpyridin-4-yl)-3-isopropyl-1H-indol-5-yl)piperidin-1-yl)-2-((3-hydroxypropyl)(methyl)amino)ethan-1-one]: the figures for the IC50 in experiment [1] (setting [4]), in experiment [2] (setting [5]) and in experiment [3] (setting [6]) were 1.23 µM, 0.0029 µM and 0.024 µM, respectively.

Consider `Cc1cc(-c2[nH]c3ccc(C4CCN(CC(=O)N5CCC(F)(F)C5)CC4)cc3c2C(C)C)cc(C)n1` [Example 216, 1-(3,3-difluoropyrrolidin-1-yl)-2-(4-(2-(2,6-dimethylpyridin-4-yl)-3-isopropyl-1H-indol-5-yl)piperidin-1-yl)ethan-1-one], for which the IC50 in experiment [1] (setting [7]) came out at 0.315 µM; in experiment [2] (setting [5]) it was 0.0028 µM; in experiment [3] (setting [8]), 0.007 µM.

In the case of `CCOc1cc(-c2[nH]c3ccc(C4CCN(C5CCN(CC(C)C)CC5)CC4)cc3c2CC)ccn1` [Example 768, 2-(2-ethoxypyridin-4-yl)-3-ethyl-5-(1′-isobutyl-[1,4′-bipiperidin]-4-yl)-1H-indole], the IC50 is 1.28 µM in experiment [1] (setting [4]), 7.22 µM in experiment [2] (setting [5]) and 1.19 µM in experiment [3] (setting [6]).

For the compound `CCS(=O)(=O)N1CCC(c2ccc3[nH]c(-c4ccnc(C)c4)c(C(C)C)c3c2)CC1` [Example 549, 5-(1-(ethylsulfonyl)piperidin-4-yl)-3-isopropyl-2-(2-methylpyridin-4-yl)-1H-indole], the IC50 was above 50 µM in experiment [1] (setting [4]), 0.0556 µM in experiment [2] (setting [5]) and 0.164 µM in experiment [3] (setting [6]).

As for `CCc1c(-c2ccnc(C)c2)[nH]c2ccc(C3CCN(CC(O)CN(C)C(C)C)CC3)cc12` (stereo not drawn) [Example 877, 1-(4-(3-ethyl-2-(2-methylpyridin-4-yl)-1H-indol-5-yl)piperidin-1-yl)-3-(isopropyl(methyl)amino)propan-2-ol], the IC50 was 0.016 µM in experiment [1] (setting [9]), 0.0306 µM in experiment [2] (setting [10]) and 0.0029 µM in experiment [3] (setting [11]).

`Cc1cc(-c2[nH]c3ccc(C4CCN(C(=O)[C@@H](N)Cc5c[nH]cn5)CC4)cc3c2C(C)C)ccn1` [Example 574, (S)-2-amino-3-(1H-imidazol-4-yl)-1-(4-(3-isopropyl-2-(2-methylpyridin-4-yl)-1H-indol-5-yl)piperidin-1-yl)propan-1-one]: the IC50 amounted to 0.851 µM in experiment [1] (setting [4]), 0.0829 µM in experiment [2] (setting [5]) and 0.0156 µM in experiment [3] (setting [6]).

For `Cc1cc(-c2[nH]c3ccc(C4CCNCC4)cc3c2C(C)C)c(C(N)=O)cn1` [Example 15, 4-(3-isopropyl-5-(piperidin-4-yl)-1H-indol-2-yl)-6-methylnicotinamide], the IC50 in experiment [1] (setting [4]) was determined as 26.5 µM; in experiment [2] (setting [5]), 1.54 µM; in experiment [3] (setting [6]), 0.448 µM.

Regarding `COCCOCCN1CCC(c2ccc3[nH]c(-c4cc(C)nc(C)c4)c(C(C)C)c3c2)CC1` [Example 324, 2-(2,6-dimethylpyridin-4-yl)-3-isopropyl-5-(1-(2-(2-methoxyethoxy)ethyl)piperidin-4-yl)-1H-indole], the IC50 in experiment [1] (setting [4]) is 0.413 µM; in experiment [2] (setting [5]), 0.0074 µM; in experiment [3] (setting [6]), 0.0044 µM.

For the compound `Cc1cc(-c2[nH]c3ccc(C4CCN(CC(O)C(C)C)CC4)cc3c2C(C)C)cc(C)n1` (stereo not drawn) [Example 855, 1-(4-(2-(2,6-dimethylpyridin-4-yl)-3-isopropyl-1H-indol-5-yl)piperidin-1-yl)-3-methylbutan-2-ol], the IC50 worked out at 3.31 µM in experiment [1] (setting [9]), 0.0211 µM in experiment [2] (setting [10]) and 0.0015 µM in experiment [3] (setting [11]).

With `Cc1cc(-c2[nH]c3ccc(C4CCN(C)CC4)cc3c2CC(F)F)cc(C)n1` [Example 539, 3-(2,2-difluoroethyl)-2-(2,6-dimethylpyridin-4-yl)-5-(1-methylpiperidin-4-yl)-1H-indole], the IC50 in experiment [1] (setting [4]) worked out at 4.82 µM; in experiment [2] (setting [5]), 0.0233 µM; in experiment [3] (setting [6]), 0.0812 µM.

As for `CC(C)c1c(-c2cc(C3CC3)ncc2F)[nH]c2ccc(C3CCN(C(=O)CN(C)C)CC3)cc12` [Example 516, 1-(4-(2-(2-cyclopropyl-5-fluoropyridin-4-yl)-3-isopropyl-1H-indol-5-yl)piperidin-1-yl)-2-(dimethylamino)ethan-1-one], the IC50 in experiment [1] (setting [4]) came out at 1.46 µM; in experiment [2] (setting [5]), 0.0121 µM; in experiment [3] (setting [6]) it was 0.19 µM.

With `CC(C)c1c(-c2ccncc2NC(=O)C(C)(C)C)[nH]c2ccc(C3CCNCC3)cc12` [Example 37, N-(4-(3-isopropyl-5-(piperidin-4-yl)-1H-indol-2-yl)pyridin-3-yl) pivalamide], the IC50 in experiment [1] (setting [4]) came to 6.1 µM; in experiment [2] (setting [5]), 42.7 µM; in experiment [3] (setting [6]) it was 0.635 µM.

In the case of `CCN(C)C(=O)CN1CCC(c2ccc3[nH]c(-c4cc(C)nc(C)c4)c(C(C)C)c3c2)CC1` [Example 246, 2-(4-(2-(2,6-dimethylpyridin-4-yl)-3-isopropyl-1H-indol-5-yl)piperidin-1-yl)-N-ethyl-N-methylacetamide], the IC50 in experiment [1] (setting [4]) came out at 0.663 µM; in experiment [2] (setting [5]) it was 0.0026 µM; in experiment [3] (setting [6]) it was 0.0053 µM.

As for `Cc1cc(-c2[nH]c3ccc(C4CCN(C(=O)c5c(C)n[nH]c5C)CC4)cc3c2C(C)C)cc(C)n1` [Example 121, (3,5-dimethyl-1H-pyrazol-4-yl)(4-(2-(2,6-dimethylpyridin-4-yl)-3-isopropyl-1H-indol-5-yl)piperidin-1-yl)methanone], the results for the IC50 in experiment [1] (setting [4]), in experiment [2] (setting [5]) and in experiment [3] (setting [6]) were 10.7 µM, 0.03 µM and 0.098 µM, respectively.

Take `Cc1cc(-c2[nH]c3ccc(C4CCNCC4)cc3c2C(C)C)c(CO)cn1` [Example 42, (4-(3-isopropyl-5-(piperidin-4-yl)-1H-indol-2-yl)-6-methylpyridin-3-yl)methanol]: the values for the IC50 in experiment [1] (setting [4]), in experiment [2] (setting [5]) and in experiment [3] (setting [6]) were 0.897 µM, 0.0527 µM and 0.0025 µM, respectively.

Turning to `COCCNC(=O)CN1CCC(c2ccc3[nH]c(-c4cc(C)nc(C)c4)c(C(C)C)c3c2)CC1` [Example 231, 2-(4-(2-(2,6-dimethylpyridin-4-yl)-3-isopropyl-1H-indol-5-yl)piperidin-1-yl)-N-(2-methoxyethyl)acetamide], the results for the IC50 in experiment [1] (setting [4]), in experiment [2] (setting [5]) and in experiment [3] (setting [6]) were 1.13 µM, 0.0086 µM and 0.0101 µM, respectively.

`Cc1cc(-c2[nH]c3ccc(C4CCN(C(=O)C5CC(=O)N(C)C5)CC4)cc3c2C(C)C)cc(C)n1` (stereo not drawn) [Example 100, 4-(4-(2-(2,6-dimethylpyridin-4-yl)-3-isopropyl-1H-indol-5-yl)piperidine-1-carbonyl)-1-methylpyrrolidin-2-one]: the results for the IC50 in experiment [1] (setting [7]), in experiment [2] (setting [5]) and in experiment [3] (setting [8]) were 22.4 µM, 0.008 µM and 0.0638 µM, respectively.

`CCc1c(-c2ccnc(C)c2)[nH]c2ccc(C3CCN(C[C@@H]4CCCN4)CC3)cc12` [Example 740, (S)-3-ethyl-2-(2-methylpyridin-4-yl)-5-(1-(pyrrolidin-2-ylmethyl)piperidin-4-yl)-1H-indole]: the IC50 came out at 0.111 µM in experiment [1] (setting [7]), 0.0679 µM in experiment [2] (setting [5]) and 0.006 µM in experiment [3] (setting [8]).

Regarding `Cc1ccc(CN2CCC(c3ccc4[nH]c(-c5cc(C)nc(C)c5)c(C(C)C)c4c3)CC2)cn1` [Example 437, 2-(2,6-dimethylpyridin-4-yl)-3-isopropyl-5-(1-((6-methylpyridin-3-yl)methyl)piperidin-4-yl)-1H-indole], the results for the IC50 in experiment [1] (setting [4]), in experiment [2] (setting [5]) and in experiment [3] (setting [6]) were 0.267 µM, 0.0086 µM and 0.0067 µM, respectively.
